From patent US7425549B2, “Drug for the treatment of osteonecrosis and for the management of patients at risk of developing osteonecrosis” (The Royal Alexandra Hospital for Children, priority 2001, dated 2008)

Test system: traumatic osteonecrosis (femoral head)
Assay: Model of traumatic osteonecrosis of the femoral head in rats, six weeks after operation
Assay type: in vivo, Wistar rats
Conditions: for BMC / BMD: femoral head, DEXA; for XR Head Area (% Contra): operated femoral head, six weeks
Text: A model of traumatic osteonecrosis was utilised in 24 female 14-week-old Wistar rats. The animals were followed for six weeks after an operation designed to disrupt the blood supply to the femoral head. The six week time point was chosen as a time point when femoral head collapse is known to have occurred in this model ^1. Animal ethics approval was received.
Rats were randomised in lots of 4 into three groups according to the schedule below. Controls receive only saline (S) injections via a subcutaneous route. Post-treated animals received saline only pre-operatively, but zoledronic acid (ZA) (Novartis) 0.1 mg/kg, from commercial stock, was administered by subcutaneous injection post-operatively at 1 and 4 weeks. Pre and Post-treated animals received zoledronic acid 0.1 mg/kg at all three time points.
The same operation was performed on each rat at time zero. All animals were weighed accurately before anaesthesia. Animals were kept warm during surgery and recovery. Anaesthesia was induced with a mixture of Ketamine 75 mg/kg and Xylazine 10 mg/kg. Drugs were mixed in the same syringe just prior to administration and given 0.2 mL per 100 g BW IM. Induction occurred within 5-10 minutes.
After sterile preparation and shaving of the right lower extremity, an open approach was made to the hip joint. The capsule was opened, and the right femoral head was dislocated from the acetabulum. The ligamentum teres divided, disrupting any blood supply from that source. The entire femoral neck was denuded of soft tissue by polishing with a vicryl suture. This disrupted the lateral epiphyseal artery and any other vessels supplying the head via the femoral neck.
Dual fluorescent labels were applied at weeks 4 and 5: at week 4 demeclocycline 30 mg/kg was administered intraperitoneally, and at week 5 calcein 20 mg/kg was administered intraperitoneally. One hour prior to culling 70 MBq Tc99 MDP was administered subcutaneously to allow bone scintigraphy to be performed on harvested specimens.
After culling, right and left proximal femora were harvested and fixed in 4% paraformaldehyde. Radiographs were taken in pairs on high quality film with a Faxitron Shielded Cabinet X-Ray System (Hewlett Packard, McMinnville, Oreg. X-ray images were digitised and analysed using Bioquant image analysis system (R&M Biometrics Inc., Nashville, Tenn.) connected to a digitizing tablet (GTCO CalComp, Inc., Columbia, Md.). Bone area, height and width of the femoral head were recorded and compared to the contralateral side. Scintigraphy scans were taken using 4 mm aperture pinholes. BMD and BMC were measured with a pDEXA Sabre scanner (Norland, Ft Atkinson Wis.).
Specimens were resin embedded and sectioned undecalcified. Coronal sections (6 microns) were cut through the femoral head. Sections were stained with von Kossa to assess trabecular bone volume and structure. Fluorescent microscopy was used on unstained sections to image the fluorescent labels and assess bone formation.

[1] = Post-Treated: 0.1 mg/kg s.c. at 1 and 4 weeks post-operatively
[2] = Pre- and Post: 0.1 mg/kg s.c. at all three time points

O=P(O)(O)C(O)(Cn1ccnc1)P(=O)(O)O [zoledronic acid, 1-hydroxy-2-[(1H-imidazol-1-yl)ethylidine] bisphosphonic acid]
BMC [1]: 0.012 g
BMD [1]: 0.11 g/cm^2
XR Head Area (% Contra) [1]: 79 % Contra
BMC [2]: 0.015 g
BMD [2]: 0.12 g/cm^2
XR Head Area (% Contra) [2]: 85 % Contra
